Measurements published in paper PMC7006651, “Effect of 6-Benzoyl-benzothiazol-2-one scaffold on the pharmacological profile of α-alkoxyphenylpropionic acid derived PPAR agonists” (Journal of Enzyme Inhibition and Medicinal Chemistry, 2020).

Columns and labels:
human PPARγ [1] = biological target: T1, human PPARγ (Homo sapiens, UniProt P37231); assay: Membrane-bound PPARγ binding assay ([3H]rosiglitazone competition, filtration); details: competition with [3H]rosiglitazone (4 nM), 180 min at 4 °C; read-out: Ki (nM), hPPARγ binding affinity
T1 sequence (P37231 235-505 limits assumed): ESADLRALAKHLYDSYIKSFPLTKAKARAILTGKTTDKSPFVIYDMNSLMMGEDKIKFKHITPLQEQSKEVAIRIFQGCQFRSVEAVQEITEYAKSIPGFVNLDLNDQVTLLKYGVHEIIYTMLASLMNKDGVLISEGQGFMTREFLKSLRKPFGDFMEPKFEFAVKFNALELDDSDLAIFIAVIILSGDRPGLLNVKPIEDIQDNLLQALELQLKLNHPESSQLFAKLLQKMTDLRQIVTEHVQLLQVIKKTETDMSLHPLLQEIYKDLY
Protocol: The membrane-associated PPARγ was used as the biological source as previously described. Binding buffer consisted of 10 mM Tris/HCl, pH 8.2, containing 50 mM KCl and 1 mM dithiothreitol. […] Radioactivity was measured in a TopCount apparatus (Packard).

human PPARα = biological target: T2, human PPARα (Homo sapiens, UniProt Q07869); assay: Gene reporter (transactivation) assay, Cos-7 cells transfected with pGal4-hPPARα; format: cell-based; details: for Emax: COS-7, 24 h, Emax relative to maximum activation with WY14643 (10 µM) = 100%, read-out: hPPAR gene reporter αGal4 (%); for EC50: GAL4 chimeric hPPARα, 24 h, read-out: hPPAR gene reporter αEC50;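 for all read-outs here: luciferase signal from a Gal4-driven reporter normalised to cotransfected β-galactosidase activity, cells exposed to rising compound concentrations with DMSO vehicle as control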
T2 construct: expressed in transfected cells; host or cells: Cos-7
T2 sequence (Q07869 239-466 limits assumed): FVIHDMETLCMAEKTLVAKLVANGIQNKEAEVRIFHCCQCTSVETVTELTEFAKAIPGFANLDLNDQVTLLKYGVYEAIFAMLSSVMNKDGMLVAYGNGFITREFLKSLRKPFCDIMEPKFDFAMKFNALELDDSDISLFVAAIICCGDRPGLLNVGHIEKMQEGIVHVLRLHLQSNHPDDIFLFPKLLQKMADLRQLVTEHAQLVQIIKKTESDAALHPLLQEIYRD
Protocol: (§1) Cos-7 cells were transiently transfected with luciferase reporter plasmid (pG5-TK-pGL3) in the presence of pGal4-hPPARα or pGal4-hPPARγ (these vectors express chimeric proteins containing the Gal4 DNA-binding domain fused to the human PPARα or PPARγ ligand binding domain coding sequence) expression vector. […] Cells were transfected in OptiMEM without FCS for 3 h at 37°, using polyethylenimine (PEI), with reporter and expression plasmids, as stated in figure’s legend. The plasmid pBluescript (Stratagene, La Jolla, CA) was used as carrier DNA to set the final amount of DNA to 5.5 µg/dish. The pCMV- ß-galactosidase expression plasmid was cotransfected as a control for transfection efficiency. […] After 16 h, cells were trypsinised and seeded in 96-well plates at the density of 2 × 10^4 cells/well and incubated for 6 h in 10% FCS containing DMEM. Cells were then incubated for 24 h in DMEM containing 0.2% FCS and increasing concentrations of the compound tested or vehicle (DMSO). At the end of the experiment, cells were washed once with ice-cold PBS and the luciferase and the β–galactosidase assays were performed as described previously[20]. Cells were incubated 24 h in the presence of indicated concentrations of compound. Luciferase activity was measured and normalised to internal control β-galactosidase activity. […] EC50 were estimated using Prism software (GraphPad). All transfection experiments were performed at least three times.

human PPARγ [2] = biological target: T3, human PPARγ (Homo sapiens, UniProt P37231); assay: Gene reporter (transactivation) assay, Cos-7 cells transfected with pGal4-hPPARγ; format: cell-based; details: Cos-7 cells, 24 h; for Emax: COS-7, 24 h, Emax relative to maximum activation with rosiglitazone (1 μM) = 100%, read-out: hPPAR gene reporter γGal4 (%); for EC50: GAL4 chimeric hPPARγ, read-out: hPPAR gene reporter γEC50;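 for all read-outs here: luciferase reporter (pG5-TK) activity normalised to cotransfected β-galactosidase, cells exposed to increasing compound concentrations in DMEM with 0.2% FCS, DMSO vehicle as control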
T3 construct: expressed in transfected cells; host or cells: Cos-7
T3 sequence (P37231 238-503 limits assumed): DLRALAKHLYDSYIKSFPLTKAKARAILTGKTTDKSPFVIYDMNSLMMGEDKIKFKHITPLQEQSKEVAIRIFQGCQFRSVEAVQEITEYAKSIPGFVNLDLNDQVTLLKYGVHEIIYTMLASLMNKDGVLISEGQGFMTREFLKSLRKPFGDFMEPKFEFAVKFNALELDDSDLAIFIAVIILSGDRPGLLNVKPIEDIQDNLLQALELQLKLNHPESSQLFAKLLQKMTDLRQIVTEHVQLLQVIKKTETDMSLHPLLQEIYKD
Protocol: as §1

CaCO2 cells = assay: CaCo2 cell absorption (membrane permeability model); format: in vitro ADME; details: percentage of absorption
Protocol: The in vivo effect of test compounds was determined by measuring glycaemia, triglyceridemia, insulinemia, and body weight using ob/ob mice (Table 3). The ob/ob mice were obese, insulin resistant with hypertriglyceridaemia and hyperglycaemia, and have been used as a rodent model of obesity-induced insulin resistance. […] As a side effect index, body weight was also measured daily, and body weight variation was calculated as a percentage of the difference in body weight between days 4 and 0. […] Benzoyl derivatives 32a, 41a and 42a were not evaluated in vivo with regard to their low absorption values with CaCO2 cells (< 25%), an in vitro model predicting membrane permeability. […] Indeed, incorporation of substituents such as methyl oxime ether and trifluoroethoxy group are benefiting for PPAR activity regulation and so for effective management of dyslipidemia without inducing body weight gain. […] The CF3 group incorporation, beyond keeping a good in vivo efficacy, provided a robust reduction of body weight induced with compound 44a, strengthening the beneficial pharmacological effect of C-H bond replacement with fluorine. Compound 44 b may be considered as a SPPARγM since this full PPARγ agonist retains the insulin-sensitizing and glucose-lowering actions while mitigating or eliminating the undesirable side effects.

ob/ob mice = assay: In vivo ob/ob mice: glycaemia, triglyceridemia, insulinemia, body weight; details: oral, 4 days; for ΔBW (body weight variation between day 0 and day 4): expressed in % of rosiglitazone in the same study (= 100%), ob/ob mice; for ΔBW (body weight variation between day 0 and day 4) / Change (%) Gly (glycemia) / Change (%) Ins (insulin) / Change (%) TG (triglycerides): synthesised compounds 8.4 µMkg^−1, references 3 mgkg^−1; for Change (%) Gly (glycemia) / Change (%) Ins (insulin) / Change (%) TG (triglycerides): percent change versus control, ob/ob mice at day 4;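 for all read-outs here: male ob/ob mice aged 10–12 weeks, given the compound once daily by oral gavage as a 1% hydroxyethylcellulose suspension, 8–12 animals per group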
Protocol: The glucose- and triglyceride-lowering activities of the compounds prepared were then tested using 10–12-week-old male ob/ob mice. […] Mice had access to filtered (0.22 mm) tap water ad libitum and irradiated pelleted laboratory chow (transbreed, Special Diet Services, England) throughout the study. Compounds were prepared as a suspension in 1% hydroxyethylcellulose (HEC) for oral administration (10 mLkg^−1). The mice (n = 8–12 per group) were dosed by gavage daily between 15:00 and 17:00 for 4 days. Randomisation was performed based on glycaemia values. The body weight gain (DBW in grams) of the animals was determined by measuring the difference between body weight at the beginning and end of the study for each mouse. At day 5 between 9:00 and 11:00 the mice were weighed, and blood samples were collected into heparin-containing tubes by retro-orbital puncture (500 mL per mouse). […] Plasma samples were prepared by centrifugation (2000 g for 10 min), and stored at −20 °C. For triglycerides and insulin determination, the percent change in plasma level in the treated group was calculated relative to the mean plasma level in the vehicle-treated group. ANOVA, followed by Dunnett’s comparison test (one-tailed) was used to estimate significant differences between the plasma glycaemia, triglycerides, insulin, and DBW values between the control group and the individual compound-treated groups.

Molecule `CCO[C@H](Cc1ccc(OCCn2c(=O)sc3cc(C(=O)c4ccccc4)ccc32)cc1)C(=O)O` [Compound 42a, (R)-3-{4-[2–(6-benzoyl-2-oxo-benzothiazol-3-yl)-ethoxy]-phenyl}-2-ethoxypropionic acid] has a Ki (human PPARγ [1]) of 70 nM, an Emax (human PPARα) of 0% and an Emax (human PPARγ [2]) of 39%. The EC50 (human PPARγ [2]) was 300 nM, the “absorption with CaCO2 cells (CaCo2 permeability)” value (“absorption with CaCO2 cells” for short) (CaCO2 cells) was less than 25% and the melting point was 57 to 59 °C.

For `CCOC(Cc1ccc(OCCn2c(=O)sc3cc(C(=O)c4ccccc4)ccc32)cc1)C(=O)O` (stereo not drawn) [Compound 32a, 3-{4-[2–(6-benzoyl-2-oxo-benzothiazol-3-yl)-ethoxy]-phenyl}-2-ethoxypropionic acid], the Ki (human PPARγ [1]) was 4 nM, the Emax (human PPARα) was no less than 80% and the EC50 (human PPARα) was 2400 nM. For the same molecule, the Emax (human PPARγ [2]) was no less than 80%, the EC50 (human PPARγ [2]) was 15 nM and the “absorption with CaCO2 cells” value (CaCO2 cells) was less than 25%. The melting point was 57 to 59 °C.

`CCO[C@@H](Cc1ccc(OCCn2c(=O)sc3cc(C(=O)c4ccccc4)ccc32)cc1)C(=O)O` [Compound 41a, (S)-3-{4-[2–(6-benzoyl-2-oxo-benzothiazol-3-yl)-ethoxy]-phenyl}-2-ethoxypropionic acid] showed a Ki (human PPARγ [1]) of 0.5 nM, an Emax (human PPARα) of 166% and an EC50 (human PPARα) of 522 nM. The Emax (human PPARγ [2]) was 142%, the EC50 (human PPARγ [2]) was 8 nM and the “absorption with CaCO2 cells” value (CaCO2 cells) was less than 25%. The melting point was 57 to 59 °C.

In the case of `CCO[C@@H](Cc1ccc(OCCn2c(=O)sc3cc(/C(=N/O)c4ccccc4)ccc32)cc1)C(=O)O` [Compound 43a, (S)-3-{4-[2–(6-[(E)-hydroxyimino-phenyl-methyl]-2-oxo-benzothiazol-3-yl)-ethoxy]-phenyl}-2-ethoxypropionic acid], the Ki (human PPARγ [1]) is reported as 0.5 nM, the Emax (human PPARα) is reported as 153% and the Emax (human PPARγ [2]) is reported as 123%. The EC50 (human PPARγ [2]) was 16 nM, the “ΔBW (body weight variation between day 0 and day 4)” value (“ΔBW” below) (ob/ob mice) was 113% and the “Change (%) Gly (glycemia)” value (ob/ob mice) was −55%. For the same molecule, the “Change (%) Ins (insulin)” value (ob/ob mice) was −29%, the “Change (%) TG (triglycerides)” value (ob/ob mice) was −33% and the melting point was 84 to 85 °C.

With `CCO[C@H](Cc1ccc(OCCn2c(=O)sc3cc(/C(=N/O)c4ccccc4)ccc32)cc1)C(=O)O` [Compound 45a, (R)-3-{4-[2–(6-[(E)-hydroxyimino-phenyl-methyl]-2-oxo-benzothiazol-3-yl)-ethoxy]-phenyl}-2-ethoxypropionic acid] the Ki (human PPARγ [1]) was 210 nM, the Emax (human PPARα) was 30% and the Emax (human PPARγ [2]) was 66%. For the same molecule, the EC50 (human PPARγ [2]) was 799 nM, the “ΔBW” value (ob/ob mice) was 328% and the “in vivo activity in ob/ob mice” value (ob/ob mice) was “inactive”. The “Change (%) Gly (glycemia)” value (ob/ob mice) was −7%, the “Change (%) Ins (insulin)” value (ob/ob mice) was 51% and the “Change (%) TG (triglycerides)” value (ob/ob mice) was 21%. For the same molecule, the “absorption with CaCO2 cells” value (CaCO2 cells) was 31% and the melting point was 84 to 85 °C.

Work on `CON=C(c1ccccc1)c1ccc2c(c1)sc(=O)n2CCOc1ccc(CC(OCC(F)(F)F)C(=O)O)cc1` (racemic) [Compound 40b, 3-{4-[2–(6-[(E)-methoxyimino-phenyl-methyl]-2-oxo-benzothiazol-3-yl)-ethoxy]-phenyl}-2–(2,2,2-trifluoro)ethoxypropionic acid] yielded a Ki (human PPARγ [1]) of 1.3 nM, an Emax (human PPARα) of 56% and an EC50 (human PPARα) of 180 nM. The Emax (human PPARγ [2]) was 95%, the EC50 (human PPARγ [2]) was 7 nM and the “ΔBW” value (ob/ob mice) was −70%. For the same molecule, the “Change (%) Gly (glycemia)” value (ob/ob mice) was −37%, the “Change (%) Ins (insulin)” value (ob/ob mice) was −55% and the “Change (%) TG (triglycerides)” value (ob/ob mice) was −54%. For the same molecule, the melting point was 56 to 57 °C.

Molecule `CCO[C@@H](Cc1ccc(OCCn2c(=O)sc3cc(/C(=N/OC)c4ccccc4)ccc32)cc1)C(=O)O` [Compound 44a, (S)-3-{4-[2–(6-[(E)-methoxyimino-phenyl-methyl]-2-oxo-benzothiazol-3-yl)-ethoxy]-phenyl}-2-ethoxypropionic acid] has a Ki (human PPARγ [1]) of 0.7 nM, an Emax (human PPARα) of 154% and an EC50 (human PPARα) of 32 nM. For the same molecule, the Emax (human PPARγ [2]) was 115%, the EC50 (human PPARγ [2]) was 2 nM and the “ΔBW” value (ob/ob mice) was 177%. For the same molecule, the “Change (%) Gly (glycemia)” value (ob/ob mice) was −46%, the “Change (%) Ins (insulin)” value (ob/ob mice) was −81% and the “Change (%) TG (triglycerides)” value (ob/ob mice) was −79%. The melting point was 151 to 152 °C.
